The source of these data is patent US11161824B2, “Heterocyclic lipoxin analogs and uses thereof” (University College Dublin, National University of Ireland, …, priority 2016, dated 2021).

The subject of data set [1] is NFkB. The data set is described as follows: LPS-induced NFkB-driven luciferase activity in THP-1 LUCIA monocytes. Format: cell-based. The settings on record: for reduction of LPS-induced NFkB luciferase activity: 30 min pre-treatment, then 24 h with 50 ng/ml LPS, relative to LPS; for effect on LPS-induced NFkB-driven luciferase activity (in words): doses 10^-12 M to 10^-6 M, 50 ng/ml LPS, 24 h; for concentration at which maximal inhibition of LPS-induced NFkB activity is reached: dose-response 10^-12 M to 10^-6 M; for potency in reducing LPS-induced NFkB activity, comparison in words: versus LXA4 or other analogues. As for the experimental part:
1×10^5 THP-1 LUCIA monocytes were pre-treated for 30 min with native LXA4 1 (FIG. 1A), imidazole analogues 9 [(1R)-epimer (FIG. 1B) and (1S)-epimer (FIG. 1C)], vehicle or appropriate controls, at increasing doses ranging from 10^−12 M up to 10^−6 M. 10^8 HKLM was used as positive control for NFkB activation. After 24 h from stimulation with 50 ng/ml of LPS, supernatants were collected and NFkB-driven luciferase was measured. (d) Data are expressed as % Relative Luminescence Unit relative to LPS alone ±SEM (n=3), *=p<0.05, **=p<0.01, ***=p<0.001. Graphs display the statistical analysis of the tested compound vs LPS.
(§1) The experiments were based around a model which utilised 1×10^5/ml THP-1 monocytes stably expressing NFkB luciferase reporter gene (LUCIA).
(§2) Anti-inflammatory activity was assessed by testing 10 analogues (6 quinoxalines & 4 isoquinolines) in presence & absence of lipopolysaccharide (LPS). For each analogue, a dose-response from 10^−12 M up to 10^−6 M was performed. The vehicle control corresponded to 0.1% Ethanol. NFkB activator, Heat-Killed Listeria Monocytogenes (HKLM) (10^7 cells/ml), were used as positive control for luciferase induction. 10^−6 M Dexamethasone (Dex) was used as positive control for luciferase inhibition. […] Benzo-lipoxin A4 (BLX) was used as positive control for LXA4 analogues.
A 2-tailed, assuming unequal variance T-test analysis was performed on three independent experiments for each assay. P-values were considered significant when p<0.05. If p<0.05, then * or $; if p<0.01, then ** or $$ or ##; if p<0.001, then *** or $$$ or ###.
Cells were seeded in 96-well plates and pre-treated with increasing doses of LXA4, analogues or controls for 30 min, followed by 24 h of co-incubation with 50 ng/ml LPS. […] (*=statistical analysis vs LPS; $=statistical analysis vs LXA4)

Data set [2] has as its system NFkB. The data set is described as follows: NFkB-driven luciferase activity in resting conditions (absence of LPS) in THP-1 LUCIA monocytes. Format: cell-based. The note with it: 10^-12 M to 10^-6 M, 24 h. As for the experimental part:
1×10^5 THP-1 LUCIA monocytes were treated for 30 min with native (a) LXA4 1, its stable imidazole-lipoxin analogues (1R)-9 and (1S)-9, vehicle or appropriate controls, at increasing doses ranging from 10^−12 M up to 10^−6 M. After 24 h, supernatants were collected and NFkB-driven luciferase was measured. Data are expressed as % Relative Luminescence Unit relative to LPS alone ±SEM (n=3).
as §1, §2

The next data set deals with THP-1 monocytes. The note with it: human, 24 h. As for the experimental part: Cytotoxicity Prior to functional assay testing, all compounds were screened for any cytotoxic effect, in the presence & absence of LPS, measuring the level of lactate dehydrogenase (LDH) released at A490nm.
The cells were treated as described above and, after 24 h, supernatant was collected and LDH activity assayed.

The next data set concerns Th1 cytokine release. The data set is described as follows: LPS-induced Th1 cytokine release from THP-1 LUCIA monocytes. Format: cell-based. The settings on record: 10^-11, 10^-9 or 10^-7 M; 50 ng/ml LPS 24 h; IL1β, IL6, IL12p70, IFNγ, TNF-α as per figure. As for the experimental part: FIG. 2A-2E are graphs showing imidazole-lipoxin analogues (1R)-9 and (1S)-9 reduce LPS-induced Th1 cytokine release. 1×10^5 THP-1 LUCIA monocytes were pre-treated for 30 min with […], 10^−9 M or 10^−7 M of LXA4 1 and imidazole-lipoxin analogues (1R)-9 and (1S)-9, vehicle or appropriate controls. After 24 h from stimulation with 50 ng/ml of LPS, supernatants were collected and […] (FIG. 2A), IL6 (FIG. 2B), IL12p70 (FIG. 2C), IFNγ (FIG. 2D), and TNF-α (FIG. 2E) levels were measured. Data are expressed as % cytokine secretion relative to LPS alone ±SEM (n=3), *=p<0.05, **=p<0.01, ***=p<0.001.
FIG. 6A-6C are graphs showing that quinoxaline-lipoxin analogue (1R)-CT-4-43 inhibits LPS-induced Th1 cytokine release. 1×10^5 THP-1 LUCIA monocytes were pre-treated for 30 min with […], 10^−9 M or 10^−7 M of LXA4 and quinoxaline-lipoxin analogue (1R)-CT-4-43, vehicle or appropriate controls. After 24 h from stimulation with 50 ng/ml of LPS, supernatants were collected and IL13 (FIG. 6A), IL6 (FIG. 6B), and IFNγ (FIG. 6C) levels were measured. Data are expressed as % cytokine secretion relative to LPS alone ±SEM (n=3), *=p<0.05, **=p<0.01, ***=p<0.001.
FIG. 9A-9C are graphs showing that the isoquinoline-lipoxin analogue RB3 inhibit LPS-induced Th1 cytokine release. 1×10^5 THP-1 LUCIA monocytes were pre-treated for 30 min with 10^−11 M, 10^−9 M or 10^−7 M of LXA4 and isoquinoline-lipoxin analogue (1R)-RB3, vehicle or appropriate controls. After 24 h from stimulation with 50 ng/ml of LPS, supernatants were collected and IL1β(FIG. 9A), IL6 (FIG. 9B), and IL12p70 (FIG. 9C) levels were measured. Data are expressed as % cytokine secretion relative to LPS alone ±SEM (n=3), *=p<0.05, **=p<0.01, ***=p<0.001.

In data set [3] the test system is zymosan-induced peritonitis. The data set is described as follows: Murine zymosan-induced peritonitis. The settings on record: lavage 24 h. Format: in vivo, C57BL6/J mice. As for the experimental part:
As shown in FIG. 17 zymosan [1 mg per mouse in 200 μl H2O] induced a massive influx of leukocytes detected in lavage 24 h post-zymosan. […] Mean of total cell numbers=4.27×10^6/ml [basal]; 5.9×107 [vehicle pretreatment and zymosan]; 2.18×107 [LXA4 pretreatment and zymosan]. Pretreament with (R) and (S) epimers of 9 also attenuated cell influx: 2.5×10^7/ml [pretreatment with (1R)-9 and zymosan; p=0.0368, relative to zymosan alone]; 1.16×107 (1S)-9 [p=0.0048 relative to zymosan alone]. Importantly, (1R)-9 and (1S)-9 were administered at doses of 1.7 ng/g using the same regimen as LXA4. As anticipated the leukocyte influx was predominantly neutrophil [PMN]. PMN numbers were reduced to 35, 44 and 20% maximum response by LXA4, (1R)-9 and (1S)-9 epimers respectively.
Effect of LXA4 1 and imidazole-lipoxin analogues (1R)-9 and (1S)-9 on murine zymosan-induced peritonitis. Peritonitis was induced in groups of 5 male C57BL6/J mice by injection of zymosan (Sigma) i.p. (1 mg per mouse in 200 μl H2O). Mice were treated with LXA4 1; (5 ng/g); (1R)-9 (1.7 ng/g) or (1S)-9 (1.7 ng/g) (200 μl i.p.) 30 minutes prior to zymosan injection and again, 1 hour after zymosan injection. Treatments with LXA4 1, (1R)-9 and (1S)-9 are designated A, B and C respectively. Peritoneal cells were collected by lavage 24 hours after injection of zymosan. Cells were incubated with LIVE/DEAD Fixable Aqua stain (Molecular probes, Invitrogen) to isolate dead cells. Data shown are total cell counts/ml. Surface marker expression on peritoneal cells was assessed by flow cytometry with data collection on a CyAn (Beckman Coulter). Data were analyzed using FlowJo software (Tree Star). Cells were stained with BD Biosciences mAbs; Siglec-F-PE (E50-2440), F4/80-FITC (BM8), eBiosciences mAb; CD11b-PerCP (M1/70) and BioLegend mAbs; CD206-PECy7 (C068C2) and Ly6G-APCCy7 (1A8). Using appropriate isotype-controls, quadrants were drawn and data plotted on logarithmic scale density- or dot-plots to investigate the relative % of PMN, eoisiophils, M1 and M2 macrophgaes. […]

The mark [4] stands for this setting: 1.7 ng/g i.p. 30 min before and 1 h after zymosan.

On to `CCCCC[C@@H](O)c1c(/C=C/[C@@H](O)[C@@H](O)CCCC(=O)OC)nc(C)n1C` [KG-5-22, (5S,6R,E)-methyl 5,6-dihydroxy-8-(5-((R)-1-hydroxyhexyl)-1,2-dimethyl-1H-imidazol-4-yl)oct-7-enoate], for which the figures for the “reduction of LPS-induced NFkB luciferase activity” value (shortened to “reduction”) with NFkB [1] (1 pM) and in the data set on NFkB [1] (10 pM) were 43.7±8.9% and 41.3±9.0%, respectively. The “effect on LPS-induced NFkB-driven luciferase activity (in words)” value in the data set with NFkB [1] was “attenuating”. The “NFkB-driven luciferase activity in resting conditions (in words)” value with NFkB [2] was “did not induce”; in the data set on NFkB [2] (listed as KG5-22) it was “does not elicit”.
Turning to `C[C@@H]1C[C@H]2[C@@H]3CCC4=CC(=O)C=C[C@]4(C)[C@@]3(F)[C@@H](O)C[C@]2(C)[C@@]1(O)C(=O)CO` [Dexamethasone], the “effect on LPS-induced LDH activity (cytotoxicity, in words)” value in the data set on THP-1 monocytes is recorded as “significantly (p<0.001) increased”.
With `CCC[C@@H](O)c1nc2ccccc2nc1/C=C/[C@@H](O)[C@@H](O)CCCC(=O)OC` [(1R)-CT4-68, Methyl (5S,6R,E)-5,6-dihydroxy-8-(3-((R)-1-hydroxybutyl)quinoxalin-2-yl)oct-7-enoate], the “reduction” value with NFkB [1] (1 uM) was found to be 28.9±6.6%. In addition, the “effect on LPS-induced NFkB-driven luciferase activity (in words)” value in the data set on NFkB [1] is “attenuates”.
In the case of `CCCCC[C@@H](O)c1nc(-c2ccccc2)n(-c2ccccc2)c1/C=C/[C@@H](O)[C@@H](O)CCCC(=O)OC` [(1R)-9, Methyl (5S,6R,E)-5,6-dihydroxy-8-(4-((R)-1-hydroxyhexyl)-1,2-diphenyl-1H-imidazol-5-yl)oct-7-enoate], the “effect on LPS-induced NFkB-driven luciferase activity (in words)” value with NFkB [1] is reported as “attenuating”. Also, the “effect on LPS-induced Th1 cytokine release (in words)” value in the data set on Th1 cytokine release is listed as “reduce”. In addition, the “NFkB-driven luciferase activity in resting conditions (in words)” value with NFkB [2] is given as “do not elicit”. Moreover, the PMN numbers in data set [3] (setting [4]) amounted to 44 % maximum response.
In the case of `CCCCC[C@H](O)c1nc(-c2ccccc2)n(-c2ccccc2)c1/C=C/[C@@H](O)[C@@H](O)CCCC(=O)OC` [(1S)-9, Methyl (5S,6R,E)-5,6-dihydroxy-8-(4-((S)-1-hydroxyhexyl)-1,2-diphenyl-1H-imidazol-5-yl)oct-7-enoate], the “effect on LPS-induced NFkB-driven luciferase activity (in words)” value with NFkB [1] is “attenuating”. Besides, the “effect on LPS-induced Th1 cytokine release (in words)” value in the data set with Th1 cytokine release was “reduce”. Moreover, in the data set with NFkB [2], the “NFkB-driven luciferase activity in resting conditions (in words)” value is “do not elicit”. In addition, in data set [3] (setting [4]), the PMN numbers is 20 % maximum response.
For `CCCCC[C@H](O)/C=C/C=C\C=C\C=C\[C@@H](O)[C@@H](O)CCCC(=O)O` [LXA4, Lipoxin A4, reference compound], the “reduction” value with NFkB [1] (100 nM) amounted to 24±1.1%. Also, the “concentration at which maximal inhibition of LPS-induced NFkB activity is reached” value in the data set on NFkB [1] came out at 100 nM. Also, the PMN numbers in data set [3] (5 ng/g i.p. 30 min before and 1 h after zymosan) is reported as 35 % maximum response.
As for `CCCCC[C@@H](O)c1nc(/C=C/[C@@H](O)[C@@H](O)CCCC(=O)OC)cc2ccccc12` [(1R)-DM-163-RB3], the “reduction” value in the data set on NFkB [1] (10 nM) is recorded as 35.4±6.1%. For the same compound, in the data set with NFkB [1] (100 nM), the “reduction” value is reported as 37.9±9.7%. In the data set with NFkB [1], the “effect on LPS-induced NFkB-driven luciferase activity (in words)” value is listed as “attenuates” and the “potency in reducing LPS-induced NFkB activity, comparison in words” value is “most potent”. The “effect on LPS-induced Th1 cytokine release (in words)” value in the data set with Th1 cytokine release is on record as “inhibit”. Further, in the data set with NFkB [2], the “NFkB-driven luciferase activity in resting conditions (in words)” value was “did not elicit”.
For the compound `CCCCC[C@@H](O)c1ncc(/C=C/[C@@H](O)[C@@H]2CCCC(=O)O2)c2ccccc12` [(1S)-DM-178-SB4, (S)-6-((R,E)-1-Hydroxy-3-(1-((R)-1-hydroxyhexyl)isoquinolin-4-yl)allyl)tetrahydro-2H-pyran-2-one], in the data set on NFkB [1] (1 uM), the “reduction” value came to 26.8±8.7%. For the same compound, in the data set with NFkB [1], the “effect on LPS-induced NFkB-driven luciferase activity (in words)” value was “attenuates”.
With `CCCCCCC[C@@H](O)c1nc2ccccc2nc1/C=C/[C@@H](O)[C@@H](O)CCCC(=O)OC` [(1R)-CT4-63, Methyl (5S,6R,E)-5,6-dihydroxy-8-(3-((R)-1-hydroxyoctyl)quinoxalin-2-yl)oct-7-enoate], in the data set on NFkB [1] (1 nM), the “reduction” value came to 22.8±7.4%. Besides, in the data set with NFkB [1], the “concentration at which maximal inhibition of LPS-induced NFkB activity is reached” value came out at 1 nM; the “effect on LPS-induced NFkB-driven luciferase activity (in words)” value is “attenuates”; the “potency in reducing LPS-induced NFkB activity, comparison in words” value was “not significantly different from LXA4”.
